We go through seven compounds from patent US5527940A, “Methanediphosphonate derivative, its manufacturing process and its pharmaceutical applications” (Toray Industries, Inc., priority 1991, dated 1996).

Assay [1] relates to adjuvant arthritis model. The assay can be described thus: Adjuvant Arthritis Test. The arrangement: concentration or dose not given beside the values. Type of assay: in vivo, 7 week old female Lewis rats. The settings on record: subcutaneous daily days 8-21; for Bone Destruction Inhibition Rate with respect to control group, Day 22: Day 22, soft X-ray score of left and right hind limbs; for Swelling Inhibition Rate with respect to Control Group, Day 21, Left / Swelling Inhibition Rate with respect to Control Group, Left (day 14 per footnote) / Swelling Inhibition Rate with respect to Control Group, Day 16, Left: left (adjuvant-injected) hind limb; for Swelling Inhibition Rate with respect to Control Group, Left (day 14 per footnote) / Swelling Inhibition Rate with respect to Control Group, Right (day 14 per footnote): day 14 (column head Day 16); for Swelling Inhibition Rate with respect to Control Group, Day 21, Right / Swelling Inhibition Rate with respect to Control Group, Right (day 14 per footnote) / Swelling Inhibition Rate with respect to Control Group, Day 16, Right: right hind limb. As for the experimental part: Multiple arthritis resembling human chronic articular rheumatism occurs when tubercule bacillus adjuvant is injected into rats. The antiinflammatory, antirheumatic and bone metabolism improving action of compounds of the present invention were investigated according to the following procedure using this adjuvant arthritis model.
0.1 mg of dried non-viable Mycobacterium butyricum cells were suspended in 0.1 ml of liquid paraffin followed by injection into the skin of the left hind limb of 7 week old female Lewis rats. The compounds obtained in the Examples were dissolved in sterilized distilled water and administered subcutaneously every day for two weeks from the 8th to 21st days after injection of adjuvant. During that time, the volumes of the right and left hind limbs were measured and the swelling rate was calculated according to the following formula: [formula]
Moreover, the swelling inhibition rates were also determined according to the following formula, and those values are shown in Table 1. [formula]
Soft X-ray radiographs were taken of the left and right hind limbs of the animals following sacrifice on day 22. The degree of bone destruction at five locations in the left and right hind limbs was evaluated based on the soft X-ray radiographs scoring those results among 5 ranks. Moreover, the bone destruction inhibition rate was calculated using the following formula, and those values are shown in Table 1. [formula]
Those results that were significant at a level of significance of P<0.001 with respect to a control group administered only sterilized distilled water according to the Student's t-test and Chukey's multiple comparison method were indicated with three asterisks (***), those results that were significant at a level of significance of P<0.01 were indicated with two asterisks (**), and those significant at a level of significance of P<0.05 were indicated with one asterisk (*).
The swelling inhibition rates for Example 7 and Example 33 are the values for day 14 and day 21.

Assay [2] concerns active oxygen production by human neutrophils. Description: Release of active oxygen from fMLP-stimulated human neutrophils (CLA luminescence). Type of assay: cell-based. Conditions: Neutrophil, 10 μM compound, fMLP stimulation, read-out: Active Oxygen Production Inhibition Rate. The text has this:
Neutrophils are known to function in the body defense reactions by phagocytosis of foreign bodies to remove them and production of active oxygen and digestive enzymes. However, the active oxygen and digestive enzymes produced by neutrophils also damage normal tissue during chronic inflammations and so forth. Moreover, they are also considered to exacerbate the inflammation. The action of compounds of the present invention was therefore measured with respect to the release of active oxygen from human neutrophils.
50 ml of human blood were drawn from a vein using 3.8% sodium citrate as anticoagulant. Equal volumes of this blood and a physiological saline solution containing 2% dextran were mixed and allowed to stand undisturbed for 30 minutes at 37° C. after shaking several times. The upper layer was separated and layered onto an equal volume of Ficoll-Paque solution. After centrifuging for 30 minutes at 1400 rpm and 20° C., the supernatant was removed and the cells were resuspended with Hanks buffer. […] The maximum amount of light emitted was then determined by a luminometer taking advantage of the phenomenon in which this excited carbonyl form emits light at 380 nm in the process of transition to the ground state. The active oxygen production inhibition rate was then calculated using the formula indicated below. […]

The test system of assay [3] is osteoclasts (mouse bone cells), resorption pit formation. Description: Bone resorption pit formation by mouse bone cells (osteoclasts) on ivory, active type-vitamin D3 stimulation. It counts as cell-based, ICR mice. Conditions: 10 nM active type-vitamin D3, 4 days. The text has this: The balance between bone formation and bone destruction is disturbed during osteoporosis, with bone destruction considered to be accelerated. Bone destruction is believed to occur due to an increase in the activation and number of osteoclasts. Experiments have been conducted wherein bone resorption was induced with active type-vitanium D3 stimulation using mouse bone cells dispersed on ivory for the experimental model. The bone resorption inhibitory action of compounds of the present invention was measured using this model.
After isolating the femur and tibia from 10-15 day old ICR mice, the bone specimens were prepared into thin sections in α-MEM medium containing 5% fetal bovine serum to prepare an bone cells suspension containing marrow cells and bone matrix. Large fragments of bone were removed with nylon mesh. Viable total cells were counted with trypan blue exclusion test while osteoclasts were stained with tartaric acid-resistantacid phosphatase stain to prepare a cell suspension containing osteoclasts in a proportion of roughly 0.05-0.1%. The ivory was cut into thin sections having a thickness of 150 μm using a low-speed rotary diamond cutter. The thin sections were then punched to a size that matched the size of the wells of a 96 well plate. These ivory fragments were placed in a 96 well plate followed by addition of the cell suspension prepared above so that each well contained 500 osteoclasts. 10 nM active type-vitamin D3 was added as stimulant simultaneous to addition of the drugs of the present invention at concentrations of 10 μM and 100 μM. After culturing the cells for 4 days at 37° C. in an environment of 10% CO2, the resorption pits that formed on the ivory slices were stained with hematoxylin and counted by observing microscopically. The resorption pit formation inhibition rate was then calculated using the formula indicated below. [formula]
The results were statistically processed using the Student's t-test, and those results that were significant at a level of significance of P<0.05 with respect to an active type-vatanium D3 stimulation control group were indicated with one asterisk (*), while those results that were significant at a level of significance of P<0.01 were indicated with two asterisks (**).

The test system of assay [4] is IL-1 production by J774-1 mouse macrophage cells. Description: Action on IL-1 Production by Strain J774-1 Mouse Macrophage Cells (LPS stimulated). It counts as cell-based. The settings on record: 100 μM compound, LPS 1 μg/ml, 24 hours, read-out: IL-1 Production Inhibition Rate with respect to Control Group. The method, then: It is also known that these cells produce IL-1 when stimulated with LPS. The inhibitory action on IL-1 production of compounds of the present invention was measured according to the following procedure using this cell line.
The J774-1 cells were cultured in RPMI-1640 medium containing 10% fetal bovine serum and 50 μM 2-mercaptoethanol followed by adjusting the number of cells to 2×10^5 cells/ml. 1 ml aliquots of this cell suspension were then placed in the wells of a 24 well plate and cultured for 30 minutes. Following culturing, LPS was added to a final concentration of 1 μg/ml. At the same time, compounds obtained in Examples were dissolved in sterilized distilled water and added at a concentration of 100 μM. […]
The samples obtained above were serially diluted by a factor of 2 in a 96 well multiplate at a capacity of 50 μl. […] The thymus cells were then cultured for 72 hours and IL-1 activity was determined from the growth rate of the cells. […] Using the absorbance of the pigment produced by this reduction at 570 nm as the index, the dilution factor of the sample when growth of thymus cells is induced by 50% was calculated in terms of the number of units of that sample by taking the case of induction of maximum growth of T cells by human gene recombinant IL-1 to be 100% growth, and growth in the case of not adding IL-1 to be 0%. […]

In the case of `CSc1cccc(SC(P(=O)(O)O)P(=O)(O)O)c1` [Example 7, (3-methylthiophenyl)thiomethanediphosphonic Acid], in assay [1], the “Bone Destruction Inhibition Rate with respect to control group, Day 22” value (“Bone Destruction Inhibition Rate” for short) was determined as 43.7%; the “Swelling Inhibition Rate with respect to Control Group, Day 21, Left” value (from here on “Swelling Inhibition Rate … Day 21, Left”) is listed as 72.7%; the “Swelling Inhibition Rate with respect to Control Group, Left (day 14 per footnote)” value came to 48.6%; the “Swelling Inhibition Rate with respect to Control Group, Day 21, Right” value (“Swelling Inhibition Rate … Day 21, Right” below) is given as 24.2%. The “Swelling Inhibition Rate with respect to Control Group, Right (day 14 per footnote)” value in assay [1] worked out at 15.0%.

The term inhibition denotes the change of the read-out against control, counted positive when it falls. For `CSc1ccccc1SC(P(=O)(O)O)P(=O)(O)O` [Example 9, (2-methylthiophenyl)thiomethanediphosphonic Acid], the inhibition at 10 µM in assay [2] is 46.3 ± 0.81%. For the same compound, the entries for the “resorption pit formation Inhibition Rate with respect to Control Group” value (“resorption pit formation Inhibition Rate” below) in assay [3] (10 μM compound) and in assay [3] (100 μM compound) were 35.8 ± 27.0% and 77.8 ± 3.59%, respectively.

For the compound `CC(C)Sc1ccc(SC(P(=O)(O)O)P(=O)(O)O)cc1` [Example 13, (4-isopropylthiophenyl)thiomethanediphosphonic Acid], the “resorption pit formation Inhibition Rate” value in assay [3] (10 μM compound) came out at 54.6 ± 10.4%. The “resorption pit formation Inhibition Rate” value in assay [3] (100 μM compound) stood at 92.5 ± 0.61%. For the same compound, in assay [1], the “Bone Destruction Inhibition Rate” value came to 62.5%; the “Swelling Inhibition Rate with respect to Control Group, Day 16, Left” value amounted to 76.9%; the “Swelling Inhibition Rate … Day 21, Left” value is recorded as 91.8%; the “Swelling Inhibition Rate with respect to Control Group, Day 16, Right” value was determined as 16.8%. Further, the “Swelling Inhibition Rate … Day 21, Right” value in assay [1] came to 28.7%. Besides, the inhibition at 100 µM in assay [4] stood at 38.6%.

For `O=P(O)(O)C(Sc1ccc(Sc2ccccc2)cc1)P(=O)(O)O` [Example 15, (4-phenylthiophenyl)thiomethanediphosphonic Acid], in assay [3] (10 μM compound), the “resorption pit formation Inhibition Rate” value turned out to be 30.5 ± 22.9%. Also, in assay [3] (100 μM compound), the “resorption pit formation Inhibition Rate” value amounted to 74.1 ± 4.38%. In addition, in assay [1], the “Bone Destruction Inhibition Rate” value amounted to 33.7%; the “Swelling Inhibition Rate with respect to Control Group, Day 16, Left” value came out at 75.0%; the “Swelling Inhibition Rate … Day 21, Left” value was found to be 73.8%; the “Swelling Inhibition Rate with respect to Control Group, Day 16, Right” value stood at 28.1%. In assay [1], the “Swelling Inhibition Rate … Day 21, Right” value was determined as 33.7%.

Take `CSc1ccc(C=C(P(=O)(O)O)P(=O)(O)O)cc1` [Example 28, 2-(4-methylthiophenyl)ethynilidene-1,1-diphosphonic acid]: the “resorption pit formation Inhibition Rate” value in assay [3] (10 μM compound) is reported as -0.34 ± 10.1%; in assay [3] (100 μM compound), 67.8 ± 3.98%.

`CSc1ccc(CC(P(=O)(O)O)P(=O)(O)O)cc1` [Example 30, 2-(4-methylthiophenyl)ethane-1,1-diphosphonic acid]: the “resorption pit formation Inhibition Rate” value was 35.6 ± 11.3% in assay [3] (10 μM compound) and 87.0 ± 4.34% in assay [3] (100 μM compound).

As for `CSc1ccc(SCCCC(O)(P(=O)(O)O)P(=O)(O)O)cc1` [Example 33, disodium 4-(4-methylthiophenyl)thio-1-hydroxy-butylidene-1,1-diphosphonate], in assay [1], the “Bone Destruction Inhibition Rate” value is given as 77.1%; the “Swelling Inhibition Rate … Day 21, Left” value was 138.0%; the “Swelling Inhibition Rate with respect to Control Group, Left (day 14 per footnote)” value is on record as 115.0%; the “Swelling Inhibition Rate … Day 21, Right” value was 66.1%. In addition, the “Swelling Inhibition Rate with respect to Control Group, Right (day 14 per footnote)” value in assay [1] was 63.5%.
